Here are results for two molecules from patent US5861296A, “Purified thermostable inorganic pyprophosphatase obtainable from thermococcus litoralis” (New England Biolabs, Inc., priority 1997, dated 1999).

Broadly, the Km is the concentration of substrate that gives half-maximal velocity.

In data set [1] the target is Thermococcus litoralis inorganic pyrophosphatase (PPase), wild type, SEQ ID NO: 10 (Thermococcus litoralis, UniProt P77992). To be noted: read-out: apparent Km for PPi (inorganic pyrophosphate); initial velocities at low substrate concentrations, Mg2+/PPi ratio of one; Lineweaver-Burke plot.
Protocol: The PPase is incubated at 75° C. for 10 minutes in a 100 μl reaction containing 30 mM Tris pH 9.0, 1.5 mM MgCl2 and 1.5 mM sodium pyrophosphate. The enzyme is then cooled quickly to room temperature and complexed with 0.9 ml of Taussky-Schorr reagent (5.0 g ferrous sulfate, 10 ml 10% ammonium molybdate in 10N sulfuric acid, in a final solution volume of 100 ml.) After 10 minutes, an absorbance reading is taken at 660 nm. The absorbance reading was compared to a standard curve using Sigma's (St. Louis, Mo.) phosphorous standard (#661-9). One standard unit will liberate 1.0 μmole of inorganic orthophosphate per minute under the above conditions.
Data set [2] deals with the molecule itself. As to the kind of experiment: gel filtration on Superose 12 HR 10/30 (125 kDa) against the subunit mass by SDS-PAGE and DNA sequence. The method, then:
The molecular mass of the *T. litoralis* inorganic pyrophosphatase was estimated by gel filtration in a Superose 12 HR 10/30 (Pharmacia; Piscataway, N.J.) (10×300 mm). The column was equilibrated with 50 mM Tris-HCl pH 7.5 containing 100 mM NaCl and run at a flow rate of 0.5 ml/min. The Superose 12 HR 10/30 had been previously calibrated with different standard proteins: Catalase (232 kDa), Aldolase (158 kDa), Bovine Serum Albumin (67 KDa), Ovalbumin (43 kDa), Chymotrypsinogen (25 kDa), and Ribonuclease A (13.7 kDa) (all from Pharmacia; Piscataway, N.J.). From the plot of log (molecular mass) versus the distribution coefficient (Kav), a value of 125 kDa was calculated for the molecular mass of *T. litoralis* inorganic pyrophosphatase. Since the apparent molecular mass of the monomer was determined to be 20 to 21 kDa on an SDS-PAGE and 19,666 Da by the DNA sequence, the enzyme is probably homohexameric. The homohexameric structure of the *Thermococcus litoralis* inorganic pyrophosphatase agrees with other known cytoplasmic PPases from eubacterial and archaeal sources which tend to be tetrameric or hexameric complexes with single subunits of 19 to 23 kDa.
(In general: In gel filtration, larger molecules generally elute earlier.)

Turning to `O=P(O)(O)OP(=O)(O)O` [PPi, inorganic pyrophosphate], the Michaelis-Menten constant (Km) in data set [1] turned out to be 1000 µM.

B1: Thermococcus litoralis inorganic pyrophosphatase subunit (enzyme)
chain: MNPFHDLEPGPEVPEVVYALIEIPKGSRNKYELDKKTGLIKLDRVLYSPFHYPVDYGIIPQTWYDDDDPFDIMVIMREPTYPGVLIEARPIGLFKMIDSGDKDYKVLAVPVEDPYFNDWKDISDVPKAFLDEIAHFFQRYKELQGKEIIVEGWENAEKAKQEILRAIELYKEKFKK
For the molecule B1, the binding result in data set [2] was “binds”.
